Source: patent US20150216865A1, “METHODS OF TREATING A BRUTON'S TYROSINE KINASE DISEASE OR DISORDER” (Celgene Avilomics Research, Inc., priority 2012, published 2015)
Marks after values point to notes of the source that are not given here.

Key:
Environmental stability = type: physicochemical
male NOD mice = test: NOD mouse model, lachrymal gland histopathology; type: in vivo; conditions: 20 weeks of age
From the text: Histopathology. Samples of lachrymal gland and salivary glands from all animals were fixed for Haematoxylin & Eosin histological analysis. Sections were inspected blind by a qualified histopathologist and scored for signs of pathology according to a semi-quantitative scoring system. This system is based on the mean number of inflammatory foci comprising 50 or more mononuclear inflammatory cells per objective field. The ratio of infiltrated to normal glandular tissue was expressed on a five point scale.
Lachrymal Gland Histopathology. Lachrymal glands from Control BALB/c mice (n=12 mice) and vehicle-treated NOD mice (n=9 mice) were examined and scored, in order to validate the model. For each animal, one section from the right lachrymal gland and one section from the left lachrymal gland were prepared. Sections were examined and scored for two criteria:
(i) Focus Score. The mean number of inflammatory foci comprising ≧50 mononuclear inflammatory cells per ×10 objective field was counted. Five such fields were assessed (where possible) to derive this index and these are selected to contain the maximum number of such foci. Where the overall area of the tissue section was less than five fields, the number of ×10 objective fields was recorded and used to determine the focus score. (ii) Area Score. […]

[1] = tested on: semi-established CIA Dba1 mice; test: Semi-established collagen induced arthritis (CIA) model; type: in vivo, mouse; conditions: 3 mg/kg, 10 mg/kg or 30 mg/kg daily
Protocol: Semi-Established Collagen Induced Arthritis (CIA) Arthritis Model. Experiments were carried out at Bolder Biopath, Boulder, Colo. All experiments were carried out in compliance with regulations of the Institutional Animal Care and Use Committee and were conducted in accordance with principles and procedures dictated by the highest standards of humane animal care. Dba1 mice were injected at the base of the tail with 150 μL of Freund's Complete Adjuvant (Sigma) containing bovine type II collagen (Elastin Products, Owensville, Mo.) (2 mg/ml) on day 0 and again on day 21. Mice were randomized into treatment groups on study day 21, and treatment was initiated. Treatment continued daily (3 mg/kg, 10 mg/kg or 30 mg/kg QD at 24 hour intervals) through day 33, and mice were terminated on day 33 (animals 1-6) or day 34 (animals 7-12). Onset of arthritis occurred between study days 21 and 34. Clinical scores were assessed for each of the paws on study days 21-34 using the following scoring system: 0=normal, 1=one hind or fore paw joint affected or minimal diffuse erythema and swelling, 2=two hind or fore paw joints affected or mild diffuse erythema and swelling, 3=three hind or fore paw joints affected or moderate diffuse erythema and swelling, 4=marked diffuse erythema and swelling or =four digit joints affected, 5=severe diffuse erythema and severe swelling entire paw, unable to flex digits. Spleens and plasma were harvested at necropsy (day 33 for animals 1-6 and day 34 for animals 7-12) and paws were removed and fixed in formalin for histopathological analysis.

[2] = NOD mouse model of Sjogren's syndrome, bodyweight; type: in vivo
Protocol: Non-Obese Diabetic Mouse (NOD) Model of Sjogren's Syndrome. Male Non Obese Diabetic (NOD) mice from the KWS BioTest NOD colony and male BALB/c mice were randomly allocated to experimental groups and allowed to acclimatise for one week prior to the beginning of the study. From six weeks of age, animals were treated according to the administration schedule in Table 5, below. Each group consisted of n=12 animals. The administration volume was 15 ml/kg from 6-12 weeks of age. The administration volume was then decreased to 10 ml/kg from 13-20 weeks of age. The vehicle was distilled water pH 3.0-3.5 for Group 7. […] Animals were weighed at the start of the study (Day 0) and once per week until termination. […] Bodyweight data, expressed in grams, were analysed by two-way ANOVA followed by Dunnett's post-test for multiple comparisons to the vehicle-treated group and presented as mean bodyweights for each group (FIG. 12). Bodyweight data, expressed as a percentage of the initial bodyweight, were analysed by two-way ANOVA followed by Dunnett's post-test for multiple comparisons to the vehicle-treated group and presented as mean percentage of the initial bodyweight ±SEM (FIG. 13).

[3] = tested on: collagen-induced arthritis Dba1 mouse model; test: Established collagen induced arthritis model (clinical score, histopathology, body weight); type: in vivo; conditions: for reduction of clinical signs of disease (inhibition of disease): established CIA
Protocol: Established Collagen Induced Arthritis Model: Experiments were carried out at Bolder Biopath, Boulder, Colo. All experiments were carried out in compliance with regulations of the Institutional Animal Care and Use Committee and were conducted in accordance with principles and procedures dictated by the highest standards of humane animal care. […] On study days 25-27, onset of arthritis occurred, and mice were randomized into treatment groups (10/treatment group, 4/group for normal). […] Randomization into each group was done after swelling was obviously established in at least one paw, and attempts were made to assure approximately equal mean scores across the groups at the time of enrollment. […] Treatment continued daily (QD at 24 h intervals) through arthritis day 14.

TNF-a = test: Inflammatory chemokine and cytokine analysis in CIA mice, TNF-a; type: in vivo, mouse
Protocol: Inflammatory Chemokine and Cytokine Analysis: At the termination of the CIA study, mice were sacrificed and blood was harvested via cardiac punch using EDTA as an anticoagulant. Following centrifugation, serum was diluted 1:4 with a mouse serum diluents kit (BioRad cat#171-305004). Levels of various mouse cytokines in plasma were quantified using Bioplex® Suspension Array System according to manufacturer's instruction (BioRad, mTNFa (171-G5023M), mIL-6 (171-G5007M), mKC (171-G5018M), mIFNg (171-G5017M), mIL-17 (Z60-00006Z2), mIL-1β (171-G5002M), mMCP-1 (171-G5019M).

What does the source list for `C=CC(=O)Nc1cccc(Nc2nc(Nc3ccc(OCCOC)cc3)ncc2F)c1` [Compound 1 besylate, N-(3-(5-fluoro-2-(4-(2-methoxyethoxyl)phenylamino)pyrimidin-4-ylamino)phenyl)acrylamide besylate]?
environmental instabilities (heat, acid, base) (Environmental stability): no environmental instabilities; lachrymal gland Area Score (proportion of infiltrated glandular tissue) vs vehicle (male NOD mice): did not reduce; lachrymal gland Focus Score (number of inflammatory foci) vs vehicle (male NOD mice): did not reduce; effect on clinical parameters of developing type II collagen arthritis [1]: significant beneficial effect; bodyweight gain (% of initial bodyweight) vs vehicle-treated group ([2]; 10 mg/kg SID, 8 weeks and 10 to 20 weeks of age): significant reduction in bodyweight gain; bodyweight (grams) vs vehicle-treated group ([2]; 10 mg/kg SID, at 13, 17, 19 and 20 weeks of age): significant decrease in bodyweight; bodyweight gain (% of initial bodyweight) vs vehicle-treated group ([2]; 30 mg/kg SID, 11 to 20 weeks of age): significant reduction in bodyweight gain; bodyweight (grams) vs vehicle-treated group ([2]; 30 mg/kg SID, from 14 to 20 weeks of age): significant decrease in bodyweight; bodyweight gain (% of initial bodyweight) vs vehicle-treated group ([2]; 50 mg/kg twice daily, 10 to 20 weeks of age): significant reduction in bodyweight gain; bodyweight (grams) vs vehicle-treated group ([2]; 50 mg/kg twice daily, from 11 to 20 weeks of age): highly significant decrease in bodyweight; bodyweight gain (% of initial bodyweight) vs vehicle-treated group ([2]; 100 mg/kg SID, 8 weeks and 10 to 20 weeks of age): significant reduction in bodyweight gain; bodyweight gain (% of initial bodyweight) vs vehicle-treated group ([2]; ad libitum 0.16 mg/ml in drinking water, 8 to 20 weeks of age): highly significant reduction in bodyweight gain; bodyweight (grams) vs vehicle-treated group ([2]; ad libitum 0.16 mg/ml in drinking water, 8 weeks and 10 to 20 weeks of age): highly significant decrease in bodyweight; reduction of clinical signs of disease (inhibition of disease) ([3]; 3 mg/kg PO QD): 50%; reduction of clinical signs of disease (inhibition of disease) ([3]; 10 mg/kg PO QD): 85%; inhibition of histopathologic signs of disease (six joints) ([3]; 30 mg/kg): 96%; reduction of clinical signs of disease (inhibition of disease) ([3]; 30 mg/kg PO QD): 95%; body weight loss associated with severity of disease ([3]; all three dose levels (3, 10, 30 mg/kg)): prevented the loss in body weight; TNF-a mean (TNF-a; 3 mg/kg): 160.2 pg/mL; TNF-a mean (TNF-a; 10 mg/kg): 123.0* pg/mL; TNF-a mean (TNF-a; 30 mg/lkg): 117.0* pg/mL
